PubChem BioAssay AID180 (DTP/NCI, 2004)
Values joined by “and” are separate entries in the source; they are usually repeats but may differ in a detail not shown here. Equal entries are not always repeated.

System: BDF1 mice, Adenocarcinoma 755 s.c., tumor weight T/C
Assay: NCI In Vivo Anticancer Drug Screen. Data for tumor model Adenocarcinoma 755 (subcutaneous) in B6D2F1 (BDF1) mice
Conditions: endpoint: mean tumor weight, higher = larger tumour
Method in brief: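 Transplantable tumor implanted; mice dosed with compound or vehicle; survival or tumor size recorded; ratio of treated to vehicle control reported.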

[1] = dose: 25.0 mg/kg/injection, schedule: Q01DX011 (ip), vehicle: carboxymethylcellulose (CMC)
[2] = dose: 50.0 mg/kg/injection, schedule: Q01DX011 (ip), vehicle: carboxymethylcellulose (CMC)
[3] = dose: 200.0 mg/kg/injection, schedule: Q01DX011 (ip), vehicle: carboxymethylcellulose (CMC)

C[C@H]1C(=O)O[C@@H]2CCN3CC=C(COC(=O)[C@](C)(O)[C@@]1(C)O)[C@H]23
T/C (dose: 12.5 mg/kg/injection, schedule: Q#A X022 (ip), vehicle: carboxymethylcellulose (CMC)): 70 % of control
T/C (dose: 12.5 mg/kg/injection, schedule: Q#A X022 (oral), vehicle: carboxymethylcellulose (CMC)): 65 % of control
T/C (dose: 22.5 mg/kg/injection, schedule: Q01DX011 (ip), vehicle: carboxymethylcellulose (CMC)): 45 % of control
T/C [1]: 74 % of control
T/C (dose: 25.0 mg/kg/injection, schedule: Q#A X022 (ip), vehicle: carboxymethylcellulose (CMC)): 69 % of control
T/C (dose: 25.0 mg/kg/injection, schedule: Q#A X022 (oral), vehicle: carboxymethylcellulose (CMC)): 44 % of control
T/C (dose: 45.0 mg/kg/injection, schedule: Q01DX011 (ip), vehicle: carboxymethylcellulose (CMC)): 34 % of control
T/C [2]: 61 % of control
T/C (dose: 50.0 mg/kg/injection, schedule: Q01DX011 (oral), vehicle: saline): 36 % of control
T/C (dose: 50.0 mg/kg/injection, schedule: Q#A X022 (ip), vehicle: carboxymethylcellulose (CMC)): 22 % of control
T/C (dose: 50.0 mg/kg/injection, schedule: Q#A X022 (oral), vehicle: carboxymethylcellulose (CMC)): 7 % of control
T/C (dose: 75.0 mg/kg/injection, schedule: Q03DX004 (ip), vehicle: carboxymethylcellulose (CMC)): 101 % of control
T/C (dose: 90.0 mg/kg/injection, schedule: Q01DX011 (ip), vehicle: carboxymethylcellulose (CMC)): 15 % of control
T/C (dose: 100.0 mg/kg/injection, schedule: Q01DX011 (ip), vehicle: carboxymethylcellulose (CMC)): 42 % of control
T/C (dose: 100.0 mg/kg/injection, schedule: Q01DX011 (oral), vehicle: carboxymethylcellulose (CMC)): 38 % of control
T/C (dose: 100.0 mg/kg/injection, schedule: Q01DX011 (oral), vehicle: saline): 27 % of control
T/C (dose: 100.0 mg/kg/injection, schedule: Q#A X022 (ip), vehicle: carboxymethylcellulose (CMC)): 15 % of control
T/C (dose: 100.0 mg/kg/injection, schedule: Q#A X022 (oral), vehicle: carboxymethylcellulose (CMC)): 7 % of control
T/C (dose: 150.0 mg/kg/injection, schedule: Q03DX004 (ip), vehicle: carboxymethylcellulose (CMC)): 46 % of control
T/C (dose: 180.0 mg/kg/injection, schedule: Q01DX011 (ip), vehicle: carboxymethylcellulose (CMC)): 7 % of control
T/C (dose: 180.0 mg/kg/injection, schedule: Q01DX011 (ip), vehicle: methylcellulose (MC)): 24 % of control
T/C [3]: 13 % of control
T/C (dose: 200.0 mg/kg/injection, schedule: Q01DX011 (oral), vehicle: carboxymethylcellulose (CMC)): 14 % of control
T/C (dose: 200.0 mg/kg/injection, schedule: Q01DX011 (oral), vehicle: saline): 4 % of control
T/C (dose: 300.0 mg/kg/injection, schedule: Q03DX004 (ip), vehicle: carboxymethylcellulose (CMC)): 24 % of control
T/C (dose: 400.0 mg/kg/injection, schedule: Q01DX011 (oral), vehicle: carboxymethylcellulose (CMC)): 6 % of control
T/C (dose: 400.0 mg/kg/injection, schedule: Q01DX011 (oral), vehicle: saline): 5 % of control
T/C (dose: 600.0 mg/kg/injection, schedule: Q03DX004 (ip), vehicle: carboxymethylcellulose (CMC)): 16 % of control

Nc1nc2c(nnn2C2OC(CO)C(O)C2O)c(=O)[nH]1 (stereo not drawn)
T/C (dose: 12.0 mg/kg/injection, schedule: Q01DX011 (ip), vehicle: methylcellulose (MC)): 38 % of control

CS(=O)(=O)OCC1OC(O)CC1O (stereo not drawn)
T/C (dose: 25.0 mg/kg/injection, schedule: Q01DX011 (ip), vehicle: saline): 113 % of control
T/C (dose: 75.0 mg/kg/injection, schedule: Q01DX011 (ip), vehicle: saline): 153 % of control

CC1CN1P(=O)(N1CCCCC1)N1CC1C (stereo not drawn)
T/C (dose: 3.0 mg/kg/injection, schedule: Q01DX011 (ip), vehicle: saline): 107 % of control and 86 % of control
T/C (dose: 6.0 mg/kg/injection, schedule: Q01DX011 (ip), vehicle: saline): 57 % of control and 71 % of control
T/C (dose: 48.0 mg/kg/injection, schedule: Q01DX011 (ip), vehicle: saline): 11 % of control

CN1c2ccc3ccccc3c2Sc2ccc3ccccc3c21
T/C (dose: 8.25 mg/kg/injection, schedule: Q01DX011 (ip), vehicle: carboxymethylcellulose (CMC)): 53 % of control
T/C (dose: 16.5 mg/kg/injection, schedule: Q01DX011 (ip), vehicle: carboxymethylcellulose (CMC)): 71 % of control
T/C [1]: 59 % of control
T/C (dose: 29.0 mg/kg/injection, schedule: Q01DX011 (ip), vehicle: carboxymethylcellulose (CMC)): 66 % of control
T/C (dose: 33.0 mg/kg/injection, schedule: Q01DX011 (ip), vehicle: carboxymethylcellulose (CMC)): 46 % of control
T/C (dose: 44.0 mg/kg/injection, schedule: Q01DX011 (ip), vehicle: carboxymethylcellulose (CMC)): 80 % of control
T/C [2]: 69 % of control
T/C (dose: 66.0 mg/kg/injection, schedule: Q01DX011 (ip), vehicle: carboxymethylcellulose (CMC)): 29 % of control and 39 % of control and 40 % of control
T/C (dose: 150.0 mg/kg/injection, schedule: Q01DX011 (ip), vehicle: carboxymethylcellulose (CMC)): 27 % of control
T/C [3]: 48 % of control
T/C (dose: 387.5 mg/kg/injection, schedule: Q01DX011 (ip), vehicle: carboxymethylcellulose (CMC)): 55 % of control

CN(C)[C@@H]1C(=O)C(C(=O)NCN(CCCl)CCCl)=C(O)[C@@]2(O)C(=O)C3=C(O)c4c(O)cccc4[C@@](C)(O)[C@H]3C[C@@H]12
T/C (dose: 0.5 mg/kg/injection, schedule: Q01DX011 (ip), vehicle: methylcellulose (MC)): 111 % of control
T/C (dose: 5.0 mg/kg/injection, schedule: Q01DX011 (ip), vehicle: methylcellulose (MC)): 98 % of control
T/C (dose: 10.0 mg/kg/injection, schedule: Q01DX011 (ip), vehicle: methylcellulose (MC)): 44 % of control
T/C (dose: 15.0 mg/kg/injection, schedule: Q01DX011 (ip), vehicle: saline): 37 % of control and 60 % of control
T/C (dose: 20.0 mg/kg/injection, schedule: Q01DX011 (ip), vehicle: methylcellulose (MC)): 35 % of control
T/C (dose: 60.0 mg/kg/injection, schedule: Q01DX011 (ip), vehicle: saline): 36 % of control

Cc1nc(N2CC2)nc(N2CC2)c1[N+](=O)[O-]
T/C (dose: 0.6 mg/kg/injection, schedule: Q01DX011 (ip), vehicle: methylcellulose (MC)): 47 % of control
T/C (dose: 1.1 mg/kg/injection, schedule: Q01DX011 (ip), vehicle: methylcellulose (MC)): 59 % of control
T/C (dose: 2.25 mg/kg/injection, schedule: Q01DX011 (ip), vehicle: methylcellulose (MC)): 12 % of control

CCCCn1cnc2c(=O)[nH]cnc21
T/C (dose: 0.9 mg/kg/injection, schedule: Q01DX011 (ip), vehicle: carboxymethylcellulose (CMC)): 76 % of control
T/C (dose: 1.8 mg/kg/injection, schedule: Q01DX011 (ip), vehicle: carboxymethylcellulose (CMC)): 83 % of control
T/C (dose: 1.8 mg/kg/injection, schedule: Q01DX011 (oral), vehicle: carboxymethylcellulose (CMC)): 76 % of control
T/C (dose: 3.7 mg/kg/injection, schedule: Q01DX011 (ip), vehicle: carboxymethylcellulose (CMC)): 91 % of control
T/C (dose: 3.7 mg/kg/injection, schedule: Q01DX011 (oral), vehicle: carboxymethylcellulose (CMC)): 107 % of control
T/C (dose: 7.5 mg/kg/injection, schedule: Q01DX011 (ip), vehicle: carboxymethylcellulose (CMC)): 63 % of control
T/C (dose: 7.5 mg/kg/injection, schedule: Q01DX011 (oral), vehicle: carboxymethylcellulose (CMC)): 82 % of control
T/C (dose: 15.0 mg/kg/injection, schedule: Q01DX011 (oral), vehicle: carboxymethylcellulose (CMC)): 90 % of control
T/C (dose: 40.0 mg/kg/injection, schedule: Q01DX001 (ip), vehicle: other): 60 % of control
T/C (dose: 66.1 mg/kg/injection, schedule: Q01DX011 (ip), vehicle: other): 111 % of control
T/C (dose: 81.0 mg/kg/injection, schedule: Q01DX001 (ip), vehicle: other): 45 % of control
T/C (dose: 132.2 mg/kg/injection, schedule: Q01DX011 (ip), vehicle: other): 90 % of control
T/C (dose: 132.25 mg/kg/injection, schedule: Q01DX011 (ip), vehicle: carboxymethylcellulose (CMC)): 58 % of control
T/C (dose: 132.25 mg/kg/injection, schedule: Q01DX011 (oral), vehicle: carboxymethylcellulose (CMC)): 70 % of control
T/C (dose: 162.0 mg/kg/injection, schedule: Q01DX001 (ip), vehicle: other): 122 % of control
T/C (dose: 264.5 mg/kg/injection, schedule: Q01DX011 (ip), vehicle: carboxymethylcellulose (CMC)): 105 % of control
T/C (dose: 264.5 mg/kg/injection, schedule: Q01DX011 (ip), vehicle: other): 76 % of control
T/C (dose: 264.5 mg/kg/injection, schedule: Q01DX011 (oral), vehicle: carboxymethylcellulose (CMC)): 86 % of control
T/C (dose: 324.0 mg/kg/injection, schedule: Q01DX001 (ip), vehicle: other): 102 % of control
T/C (dose: 529.0 mg/kg/injection, schedule: Q01DX011 (oral), vehicle: carboxymethylcellulose (CMC)): 89 % of control

CC1CN1P(=O)(N1CCc2ccccc21)N1CC1C (stereo not drawn)
T/C (dose: 28.0 mg/kg/injection, schedule: Q01DX011 (ip), vehicle: carboxymethylcellulose (CMC)): 97 % of control
T/C (dose: 56.0 mg/kg/injection, schedule: Q01DX011 (ip), vehicle: carboxymethylcellulose (CMC)): 67 % of control
T/C (dose: 113.0 mg/kg/injection, schedule: Q01DX011 (ip), vehicle: carboxymethylcellulose (CMC)): 41 % of control
T/C (dose: 226.0 mg/kg/injection, schedule: Q01DX011 (ip), vehicle: carboxymethylcellulose (CMC)): 2 % of control
